Measured values from PMC5442318, “Hundreds of dual-stage antimalarial molecules discovered by a functional gametocyte screen” (Nature Communications, 2017).
Like-named read-outs stand apart in the source and are kept apart here.

Legend:
[1] = system: P. falciparum stage V female gametocytes; assay: P. falciparum female gametocyte activation assay (Pf FGAA), 24 h or 48 h preincubation, Pfs25 expression readout; type: cell-based, Plasmodium falciparum NF54; conditions: mean, read-out: Gametocytes mean Pf FGAA IC50
Procedure: P. falciparum NF54 (originally isolated from an imported malaria case in the Netherlands in the 1980s; BEI Resources, cat. no. MRA-1000) asexual-stage culture was performed as described by Trager and Jensen[37]. Cultures synchronized at the ring stage were used to start gametocyte cultures (day 0) at 1% parasitaemia and 4% haematocrit in 200 ml final volume using culture bottles (Nalgene 3110-42, Thermo Scientific). Complete culture medium (RPMI 1640 supplemented with 25 mM HEPES, 50 μg ml^−1 hypoxanthine, 2 g l^−1 NaHCO3 and 10% pooled human male type A+ serum) was totally replaced daily for 14 days without fresh erythrocyte addition. Human serum was obtained from Interstate Blood Bank, A^+ serotype; no aspirin 2 h before drawing and no antimalarials 2 weeks before drawing. To ensure a stable temperature at 37 °C, which is crucial for gametocyte production and maturation, pre-warmed medium and a slide warmer (XH-2001, Premiere) were used. Under these conditions, parasitaemia reaches a peak of asexual stages on days 4–5, and the first gametocytes are differentiated in culture on day 6. Sexual-stage development was monitored microscopically by Giemsa-stained thin blood smears at day 7 (mainly asexual stages and stages I to III gametocytes) and day 14 (stages IV and V gametocytes).
Cultures showing mainly stage V gametocytes were purified by differential sedimentation as previously reported. The gametocyte concentration was adjusted to plate 8,000 gametocytes per well (100 μl per well) in 384-well poly-D-lysine coated plates (781946, Greiner Bio-One) containing the compounds to test. […] Female gametocyte activation was then triggered by temperature drop and addition of xanthurenic acid (D120804, Sigma) as previously described. To detect female gametes, monoclonal anti-Pfs25 antibody[38] 4B7 (BEI Resources (formerly MR4), cat. no. MRA-315) conjugated to the Cy3 fluorochrome (GE Healthcare) was added to ookinete medium (RPMI 1640 supplemented with 25 mM HEPES, 50 μg ml^−1 hypoxanthine, 2 g l^−1 NaHCO3, 100 μM xanthurenic acid and 20% human serum) at a final concentration of 0.5 μg ml^−1. Activated cultures were then kept at 26 °C for 24 h protected from light, and image acquisition was performed in the Opera High-Content Screening System (PerkinElmer). Using × 10 air objective, five images per well were taken using 532 nm excitation. Images were analysed with a Columbus image data storage and analysis system (PerkinElmer) based on a script specifically designed for this assay that considers size, roundness and intensity of fluorescence of the female activated gametocytes.
Compounds were dissolved in 100% DMSO and dispensed in the 384-well plates using an Echo-CRS liquid handler. Compounds were tested in 2–3 independent experiments. […] Based on that, Z′ factor was calculated for each plate and only those ones with values higher than 0.4 were considered acceptable for data analysis.
Assay performance statistics, such as signal to background ratio, Z′ and robust 3 s.d. activity cut-off were calculated using templates in ActivityBase XE (IDBS, Guilford, Surrey, UK). Hit population analysis and visualization were conducted using Spotfire DecisionSite (Spotfire, Inc., Somerville, MA, USA). The pIC50 (−log IC50) values were obtained using the ActivityBase XE nonlinear regression function in the full curve analysis bundle.

[2] = system: P. falciparum stages IV–V gametocytes; assay: Gametocytocidal ATP-depletion assay (gametocyte ATP bioluminescence); type: cell-based, Plasmodium falciparum
Procedure: In parallel, the set of confirmed hits from the Pf FGAA screen was cross-compared in the gametocyte ATP-depletion assay, at 2 μM single concentration (Supplementary Data 1). This assay monitors ATP levels as surrogate of gametocyte viability.
‘Viability' of mature gametocytes was determined using the gametocyte ATP bioluminiscence assay. Briefly, stages IV–V gametocyte cultures were double-purified by differential sedimentation followed by magnetic isolation. Then, parasites (50 μl per well containing 12,500 gametocytes) were added to compound pre-dispensed 384-well plates (781091, Greiner Bio-One) and incubated at 37 °C for 48 h (3% O2, 5% CO2 and 92% N2). BacTiter-Glo kit (G8231, Promega) was used to determine the ATP levels of ‘live' parasites according to the manufacturer's instructions. After reagent addition (50 μl per well), luminescence of the plates was measured using a microplate reader (HTS counter Victor, Wallac).

HepG2 cells = assay: HepG2 cytotoxicity assay; type: cell-based
Procedure: After incubation, plates and CellTiter-Glo Reagent (G7571, Promega) were equilibrated at room temperature for 30 min before proceeding to develop the luminescent signal. Using a Multidrop combi dispenser, 25 μl per well of the signal developer were added to the plates and after 10 min at room temperature for stabilization, plates were read on the ViewLux system (Perkin Elmer).

[3] = system: P. falciparum asexual blood stages; conditions: read-out: Pf Asexual blood stages XC50, cited from earlier work
[4] = TCAMS data, ref 1 (Gamo et al., 2010)
[5] = P. falciparum female gametocytes
[6] = TCAMS asexual blood stage data, ref 1 (Gamo, F. J. et al., Nature 465, 305-310, 2010)

| IC50 [1, 5] | IC50 ([1]; P. falciparum female gametocyte activation assay) | Compound | IC50 [1] | Gametocytes mean ATP inhibition at 2µM (%) [2] | HepG2 cells mean TOX50 (HepG2 cells; mean) | IC50 [3, 4] | Gametocytes mean ATP inhibition at 2µM [2] | HepG2 cells mean TOX50 (HepG2 cells; HepG2 cells; mean) | IC50 [3, 6] | HepG2 cells mean TOX50 (HepG2 cells; mean; HepG2 cells) |
| --- | --- | --- | --- | --- | --- | --- | --- | --- | --- | --- |
| 320 nM |  | c1ccc(CNc2cc(-c3ccccn3)nc(-c3ccccn3)n2)cc1 [TCMDC-125421] |  |  |  |  | 76.15% | 13.04 µM | 300 nM |  |
|  | 2000 nM | Cl.O=S(=O)(Nc1cc2c(cc1OCCCN1CCCCC1)CCNCC2)c1ccc(-c2ccc(Cl)cc2)cc1 [TCMDC-141753] |  |  |  |  | -0.045% |  | 1010 nM | 4.37 µM |
| 1390 nM |  | C[C@H](Cc1ccc(C[C@@H](C)NC[C@H](O)c2cccc(Cl)c2)cc1)NC[C@H](O)COc1ccccc1.Cl [TCMDC-131549] |  |  |  |  | 20.38% | 5.19 µM | 1170 nM |  |
| 1670 nM |  | CNCCNc1nccc(N2CCc3ncnc(Nc4ccc(OCc5cccc(F)c5)c(Cl)c4)c3C2)n1 [TCMDC-135478] |  |  |  |  | -9.54% | 5.62 µM | 200 nM |  |
| 100 nM |  | CC(C)(C)Nc1cc(C2CC2)nc(-c2ccccn2)n1 [TCMDC-124453] |  |  |  |  | 81.87% | >100 µM | 680 nM |  |

More lines, now with the values behind:

| Compound | IC50 [1, 5] | IC50 ([1]; P. falciparum female gametocyte activation assay) | IC50 [1] | Gametocytes mean ATP inhibition at 2µM (%) [2] | HepG2 cells mean TOX50 (HepG2 cells; mean) | IC50 [3, 4] | Gametocytes mean ATP inhibition at 2µM [2] | HepG2 cells mean TOX50 (HepG2 cells; HepG2 cells; mean) | IC50 [3, 6] | HepG2 cells mean TOX50 (HepG2 cells; mean; HepG2 cells) |
| --- | --- | --- | --- | --- | --- | --- | --- | --- | --- | --- |
| CS(=O)(=O)O.CSc1ccc2ccccc2c1CCNCCCCNCCc1c(SC)ccc2ccccc12 [TCMDC-137763] |  |  | 1010 nM | 93.38% | 1.82 µM | 410 nM |  |  |  |  |
| CCC(CSC1CCCCC1)N(C)CCN(C)C(CC)CSC1CCCCC1.Cl (centres unmarked) [TCMDC-131456] | 1250 nM |  |  |  |  |  | 36.19% | 0.0654 µM | 310 nM |  |
| CCOc1cc2ccccc2cc1CNCCCCCCNCc1cc2ccccc2cc1OCC.CS(=O)(=O)O [TCMDC-137940] |  |  | 1290 nM | 2.59% | 6.06 µM | 980 nM |  |  |  |  |
| C=CCOc1ccc2ccccc2c1CNCCCCCCNCc1c(OCC=C)ccc2ccccc12.CS(=O)(=O)O [TCMDC-137340] |  |  | 700 nM | 58.99% | 1.93 µM | 860 nM |  |  |  |  |
| CCn1c(-c2nonc2N)nc2c(-c3cccc(NC(=O)Nc4ccc(C(F)(F)F)cc4)c3)ncc(OCCCN)c21.O=C(O)C(F)(F)F [TCMDC-136179] |  |  | 910 nM | -5.44% | 5.62 µM | 1050 nM |  |  |  |  |
| Cl.Clc1ccc(CNCCCCCCCNCc2ccc(Cl)c(Cl)c2)cc1Cl [TCMDC-138075] |  |  | 700 nM | -3.08% | 4.57 µM | 370 nM |  |  |  |  |
| Cl.Nc1c2c(nc3ccc(NC(=O)CCCCCCc4ccccc4)cc13)CCCC2 [TCMDC-139056] |  |  | 2380 nM | -10.66% | 5.42 µM | 250 nM |  |  |  |  |
| COc1cc2c(cc1CCNCCCCNCCc1cc3c(cc1OC)CCCC3)CCCC2.CS(=O)(=O)O [TCMDC-137319] |  |  | 890 nM | 88.42% | 1.86 µM | 1000 nM |  |  |  |  |
| FC(F)(F)c1ccc2[nH]c(-c3ccc(-c4cccc(CNCCN5CCNCC5)c4)cc3)nc2c1.O=C(O)C(F)(F)F [TCMDC-132864] | 1710 nM |  |  |  |  |  | 10.30% | 12.31 µM | 1030 nM |  |
